Patent publication US8133472B2, “Cyclopeptides containing RGD mimetics as imaging markers for integrins” (Siemens Medical Solutions USA, Inc., priority 2008, dated 2012)
“And” between values parts separate entries of the source, which are not always exact repeats. Identical values can stand only once. Non-standard residues stand in square brackets, D forms with d. Residues, ends and D or L forms follow the SMILES beside them. *: point of attachment. X1 = O=C(Cn1cc(CCCF)nn1)NCC1OC(C(=O)*)C(O)C(O)C1O

Key:
[1] = target: T1, Integrin αvβ3 expressing U87MG cells (Homo sapiens, UniProt P05106+P06756); experiment: Cell-based integrin receptor-binding competition assay against fluorescent compound 21; details: 10 nM compound 21, 2 hrs, FIG. 4
T1 construct: Integrin αvβ3 expressing U87MG cells; endogenous in cells; host or cells: U87MG
Procedure: After incubation, cells were washed three times to eliminate unbound cyclic peptides. Fluorescence readings (RLU) were then taken (excitation at 491 nm, emission at 518 nm, cutoff 515 nm). Fluorescence signals of wells without cyclic peptides were set as 100% and used as control. […] All treatments were carried out in triplicates.

[2] = target: T2, integrin αvβ3 (Homo sapiens, UniProt P05106+P06756); experiment: Binding affinity to integrin αvβ3, summary statements (FIG. 1-4); details: general statement
Procedure: Compound 20 was immobilized onto a CM5 chip (Supplier: Biacore. CM5 is a SPR chip with a carboxymethylated dextran covalently attached to a gold surface) via amine coupling. Intergrin αvβ3 samples at 50 nM concentration, premixed with a wide range of concentrations of RGD test compound (0˜2000 nM), were flowed through the CM5 chip at 14° C.
The interactions between the flowing integrin αvβ3 sample and the surface of the chip were recorded by Biacore sensorgram signals. Flow cell #1 served as blank control and the flow cell #2 were coated with compound 20. After subtraction the blank signal of flow cell #1 from the signal of flow cell #2, the resulting sensorgram signals from each cycle were converted into percentage values and the Kd and IC50 values for each cyclopeptides were calculated.
Inhibitory effects of cyclic peptides were quantified by measuring their effects on the interactions between immobilized integrin and biotinylated soluble ligand. Integrin αvβ3 was immobilized on a 96 well plate. […] The wells were incubated with alkaline-phsphatase substrate and the intensities of yellow color product were measured in plate reader. […]
Integrin αvβ3 expressing U87MG cells were incubated with a series of concentration of cyclic peptides (0.01, 0.1, 1, 10, 100, 1000, 10000 nM) in the presence of 10 nM of green fluorescence labeled compound 21 for 2 hrs. […]

[3] = tested on: tumor; details: in vivo, cited from earlier work
[4] = tested on: U87MG human glioblastoma tumor xenograft; format: in vivo, mouse
Procedure: PET Studies: In vivo microPET imaging of a tumor-bearing mouse is performed on an anesthetized mouse bearing tumor xenograft of U87MG human glioblastoma after administration of the test imaging cyclic peptides. Animals are induced with 5% isoflurane/oxygen until anesthetized and then maintained on 2-2.5% isoflurane/oxygen inhalation for the duration of each PET scanning procedure (up to 2 hours). Anesthetized animals are placed on a heated pad for the duration of each PET scan. Animals are scanned at 1 hour post-injection for 30 min.

[5] = FIG. 5
Procedure: Table printed on a drawing sheet, FIG. 5
The patent's description of the figure: FIG. 5 is a microPET imaging of Compound 19 in a U87MG xenograft mouse model at 1 hour post-injection.
First reader's note: Tissue uptake from the microPET image beside the table; rows are the right-side (RS) tumor, the left-side (LS) tumor and muscle.

[6] = tested on: A431 human squamous cell carcinoma model; details: integrin negative cell line A431; cited from earlier work
[7] = cited from earlier work
[8] = target: T2, integrin αvβ3; details: background statement; cited from earlier work
[9] = tested on: M21 melanoma xenograft; details: integrin-positive M21 melanoma xenograft; cited from earlier work
[10] = comparison of cyclic peptides 18 and 23
[11] = comparison among cyclic peptides 4, 1 and RGDfK

## C[C@@H]1NC(=O)[C@H](CCCNC(=N)N)NC(=O)[C@H](CCCCNC(=O)CCN(CCC(=O)NCCCC[C@@H]2NC(=O)[C@@H](Cc3ccccc3)NC(=O)[C@H](CC(=O)O)NC(=O)[C@H](C)NC(=O)[C@H](CCCNC(=N)N)NC2=O)C(=O)CCOCCOCCOCCOCCNC(=O)n2cc(CCCF)nn2)NC(=O)[C@@H](Cc2ccccc2)NC(=O)[C@H](CC(=O)O)NC1=O [Compound 23]
[1]; [10]
  potency (competition of binding): very similar in potency

## N=C(N)NCCC[C@@H]1NC(=O)[C@H](CCCCN)NC(=O)[C@@H](Cc2ccccc2)NC(=O)[C@H](CC(=O)O)NC(=O)[C@H](CO)NC1=O [Compound 1] (cyclo(D[dF]KRS))
[1]; [11]
  potency (competition of binding): very similar in potency

## C[C@@H]1NC(=O)[C@H](CCCNC(=N)N)NC(=O)[C@H](CCCCN)NC(=O)[C@@H](Cc2ccccc2)NC(=O)[C@H](CC(=O)O)NC1=O [Compound 4] (cyclo(RAD[dF]K))
[1]; [11]
  potency (competition of binding): very similar in potency
[2]
  binding affinity to integrin αvβ3: high binding affinity

## c(RGDyV)
[3]; 125I-labeled peptide
  tumor uptake: receptor-specific tumor uptake
[3]
  excretion: unfavorable hepatobiliary excretion
  tumor washout: rapid tumor washout

## C[C@@H]1NC(=O)[C@H](CCCNC(=N)N)NC(=O)[C@H](CCCCNC(=O)C2O[C@H](CNC(=O)Cn3cc(CCC[18F])nn3)[C@H](O)C(O)[C@@H]2O)NC(=O)[C@@H](Cc2ccccc2)NC(=O)[C@H](CC(=O)O)NC1=O (some centres unmarked) [Compound 19]
[4]; microPET, 1 hour post-injection, FIG. 5
  tumor uptake and retention: good tumor uptake and retention
[4]; mouse, in vivo
  wash-out rate from muscle and other healthy tissues: fast wash-out rate
[5]
  %ID/g: 0.042 %ID/g and 0.034 %ID/g and 0.025 %ID/g

## C[C@@H]1NC(=O)[C@H](CCCNC(=N)N)NC(=O)[C@H](CCCCNC(=O)C2OC(CNC(=O)Cn3cc(CCCF)nn3)C(O)C(O)C2O)NC(=O)[C@@H](Cc2ccccc2)NC(=O)[C@H](CC(=O)O)NC1=O (some centres unmarked) [Compound 18] (cyclo(AD[dF]K(X1)R))
[1]; [10]
  potency (competition of binding): very similar in potency
[2]
  binding affinity to integrin αvβ3: high binding affinity

## CC([18F])C(=O)NC[C@H]1OC(C(=O)NCCCC[C@@H]2NC(=O)[C@@H](Cc3ccccc3)NC(=O)[C@H](CC(=O)O)NC(=O)CNC(=O)[C@H](CCCNC(=N)N)NC2=O)[C@@H](O)C(O)C1O (some centres unmarked) [[^18F]Galacto-RGD]
[6]
  tracer localization: did not localize on tumor cells
[7]; background statement
  tumor standard uptake values: modest tumor standard uptake values
[7]; both preclinical models and human studies
  tracer accumulation in organs: prominent tracer accumulation in the liver, kidneys, spleen, and intestines
[8]
  integrin binding affinity: relatively low integrin binding affinity
[9]
  tumor uptake: integrin αvβ3-specific tumor uptake
